Experimental data as given in patent publication US11311503B1, “Sterile aqueous choline salt compositions” (Protara Therapeutics, Inc., priority 2021, dated 2022).
Where two headings read alike, the source gives them in different places.

Legend:
[1] = three months post production
[2] = three months post production; remark: listed apart in the source
[3] = Acid 1: 1 N HCl, about 72 hours
[4] = Acid 2: 0.1 N HCl, about 72 hours
[5] = Base 1: 1 N NaOH, about 72 hours
[6] = Base 2: 0.1 N NaOH, about 72 hours
[7] = Heat (dry): 80°, about 72 hours
[8] = Heat (wet): 80°, about 72 hours
[9] = Oxidation: 5% H2O2, about 24 hours
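Throughout, for % Impurities RRT 1.42/1.44: Stress-treated samples analysed together with a control by the test method, run time lengthened to catch possible late-eluting degradation peaks.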
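Throughout, for % Total Impurities: Stress-treated samples analysed together with a control by the test method, run time lengthened to catch possible late-eluting degradation peaks.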
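Throughout, for Assay % Relative to control: Stress-treated samples analysed together with a control by the test method, run time lengthened to catch possible late-eluting degradation peaks.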
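Throughout, for Mass Balance % Relative to Control: Stress-treated samples analysed together with a control by the test method, run time lengthened to catch possible late-eluting degradation peaks.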

Structure (SMILES): C[N+](C)(C)CCO.[Cl-] [Choline chloride]
- Bacterial Endotoxins [1]: <0.1 EU/mg
- pH (1 in 10 solution) [2]: 5.9
- % Impurities RRT 1.42/1.44 [3]: 0.14%
- % Total Impurities [3]: 0.14%
- Assay % Relative to control [3]: 100.4%
- Mass Balance % Relative to Control [3]: 100.5%
- Mass Balance Assay + Impurities [3]: 99.24
- Assay % LC (Acid 1: 1 N HCl, about 72 hours, ambient): 99.1 % LC
- Assay % Relative to control [4]: 100.2%
- Mass Balance % Relative to Control [4]: 100.2%
- Mass Balance Assay + Impurities [4]: 98.9
- Assay % LC (Acid 2: 0.1 N HCl, about 72 hours, ambient): 98.9 % LC
- % Impurities RRT 1.42/1.44 [5]: 0.14%
- % Total Impurities [5]: 0.14%
- Assay % Relative to control [5]: 100.6%
- Mass Balance % Relative to Control [5]: 100.7%
- Mass Balance Assay + Impurities [5]: 99.44
- Assay % LC (Base 1: 1 N NaOH, about 72 hours, ambient): 99.3 % LC
- Assay % Relative to control [6]: 102.1%
- Mass Balance % Relative to Control [6]: 102.1%
- Mass Balance Assay + Impurities [6]: 100.8
- Assay % LC (Base 2: 0.1 N NaOH, about 72 hours, ambient): 100.8 % LC
- Assay % LC (Control: No treatment): 98.7 % LC
- Mass Balance Assay + Impurities (Control: No treatment): 98.7
- Assay % LC (Heat (dry): 80° for about 72 hours): 99.2 % LC
- Assay % Relative to control [7]: 100.5%
- Mass Balance % Relative to Control [7]: 100.5%
- Mass Balance Assay + Impurities [7]: 99.2
- Assay % Relative to control [8]: 100.7%
- Mass Balance % Relative to Control [8]: 100.7%
- Mass Balance Assay + Impurities [8]: 99.4
- Assay % LC (Heat (wet): in the presence of water, 80° for about 72 hours): 99.4 % LC
- Assay % LC (Light (dry): about 7.2 kilolux Visible and 1 W/m^2 UV, about 120 hours): 99.7 % LC
- Assay % Relative to control (Light (dry): about 120 hours): 101.0%
- Mass Balance % Relative to Control (Light (dry): about 120 hours): 101.0%
- Mass Balance Assay + Impurities (Light (dry): about 120 hours): 99.7
- Assay % Relative to control (Light (wet): about 120 hours): 100.2%
- Mass Balance % Relative to Control (Light (wet): about 120 hours): 100.2%
- Mass Balance Assay + Impurities (Light (wet): about 120 hours): 98.9
- Assay % LC (Light (wet): in the presence of water, about 7.2 kilolux Visible and 1 W/m^2 UV, about 120 hours): 98.9 % LC
- % Total Impurities [9]: 0.55%
- Assay % Relative to control [9]: 100.7%
- Mass Balance % Relative to Control [9]: 101.3%
- Mass Balance Assay + Impurities [9]: 99.95
- Assay % LC (Oxidation: 5% H2O2, about 24 hours, ambient): 99.4 % LC
- stability / degradation at all stressed conditions (acid, base, oxidation, light, heat, maximum stress conditions): no significant degradation
